Consider 4 molecules from patent publication US6251894A, “1-(1,2-disubstituted piperidinyl)-4 (fused imidazole)-piperidine derivatives” (Janssen Pharmaceuticals N.V., priority 1995, dated 2001).

The test system of experiment [1] is Substance P Induced Plasma Extravasation. The experiment in a line: Antagonism of substance P induced plasma extravasation in guinea-pigs. It counts as in vivo, guinea-pig. Conditions: Cavia porcellus, sc, s.c., 1 hour prior to substance P. In a few lines: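 Female guinea-pigs; compound or solvent given s.c. or p.o. 1 h before substance P (2 mg/kg, femoral artery) plus Evans Blue (30 mg/kg). Blue colouring of nose, forepaws, conjunctiva scored at 10 min; trachea and urinary bladder at 30 min after CO2 sacrifice. Values are lowest active doses in mg/kg.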

Experiment [2] concerns Substance P Induced Relaxation of the Pig Coronary Arteries. The experiment can be described thus: Antagonism of substance P induced relaxation of the pig coronary arteries. Conditions: test compound concentration 3 × 10^-9 (unit not given), 30 min incubation. In a few lines:
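Inverted pig coronary artery segments, endothelium outside, in Krebs-Henseleit at 37 °C (95/5 O2/CO2), isometric tension recorded. After prostaglandin F2α (10^-5 M) precontraction, substance P (3×10^-10 M and 10^-9 M cumulative) relaxation repeated after 30 min incubation with test compound.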

The mark [3] stands for this setting: 10 min, conjunctiva, read-out: lowest active dose (LAD), conjunctiva.
Where [4] appears, read: 10 min, forepaws, read-out: lowest active dose (LAD), forepaws.
The mark [5] stands for this setting: 10 min, nose, read-out: lowest active dose (LAD), nose.
Where [6] appears, read: 0.5 h, trachea, read-out: lowest active dose (LAD), trachea.
Setting [7] is: 0.5 h, urinary bladder, read-out: lowest active dose (LAD), urinary bladder.

The structures appear in SMILES notation. Where two headings read alike, the source gives them in different places.

`Cc1cc(C)cc(C(=O)N2CC[C@H](N3CCC(=C4c5sccc5CCn5ccnc54)CC3)C[C@H]2Cc2ccccc2)c1` (relative stereo) [Compound 37]: the minimal effective dose came out at 2.5 mg/kg in experiment [1] (setting [3]); 2.5 mg/kg in experiment [1] (setting [4]); 2.5 mg/kg in experiment [1] (setting [5]); 10 mg/kg in experiment [1] (setting [6]); 10 mg/kg in experiment [1] (setting [7]). Besides, the “% inhibition of the response to 10^-9 M substance P” value in experiment [2] stood at 81.9%.

Regarding `O=C(c1cc(C(F)(F)F)cc(C(F)(F)F)c1)N1CC[C@@H](N2CCC(=C3c4ccccc4OCn4ccnc43)CC2)C[C@@H]1Cc1ccccc1` (relative stereo) [Compound 114], the minimal effective dose in experiment [1] (setting [3]) was 2.5 mg/kg; in experiment [1] (setting [4]), 10 mg/kg; in experiment [1] (setting [5]) it was 2.5 mg/kg; in experiment [1] (setting [6]), 10 mg/kg; in experiment [1] (setting [7]), 10 mg/kg. Besides, the “% inhibition of the response to 10^-9 M substance P” value in experiment [2] is 100.0%.

In the case of `O=C(c1cc(C(F)(F)F)cc(C(F)(F)F)c1)N1CC[C@H](N2CCC(=C3c4ccccc4CCn4c3nc(CO)c4CO)CC2)C[C@@H]1Cc1ccccc1` (relative stereo) [Compound 52], the minimal effective dose in experiment [1] (setting [3]) came to 2.5 mg/kg; in experiment [1] (setting [4]), 2.5 mg/kg; in experiment [1] (setting [5]), 2.5 mg/kg; in experiment [1] (setting [6]), 10 mg/kg; in experiment [1] (setting [7]), 2.5 mg/kg. In addition, the “% inhibition of the response to 10^-9 M substance P” value in experiment [2] was 77.8%.

Consider `O=C(c1cc(C(F)(F)F)cc(C(F)(F)F)c1)N1CC[C@H](N2CCC(=C3c4ccccc4OCn4ccnc43)CC2)C[C@@H]1Cc1ccccc1` (relative stereo) [Compound 113], for which the minimal effective dose in experiment [1] (setting [3]), in experiment [1] (setting [4]), in experiment [1] (setting [5]), in experiment [1] (setting [6]) and in experiment [1] (setting [7]) was 10 mg/kg each time. The “% inhibition of the response to 10^-9 M substance P” value in experiment [2] is on record as 87.9%.
